Experimental data taken from US9060970B2, “Bridge-helix cap: target and method for inhibition of bacterial RNA polymerase” (priority 2011, dated 2015).
pIC50: −log10 of the molar value. Starred links: 1 amine or outer side, 2 acyl side, 3 side chain; linkers in the order of their positions; H or OH if unused. Positions of bridges follow the written chain, without caps; N, C: chain ends. Non-standard residues stand in square brackets, D forms with d. Residues, ends and D or L forms follow the SMILES beside them. *: point of attachment. X2 = C[C@H](Oc1ccc([C@H](N[*:1])C(=O)[*:2])cc1)[C@@]1(/C=C/C(=O)[*:3])CO1; X1 = CC(C)[C@H](O)[C@H](C)C(=O)*; aIle = CC[C@@H](C)[C@H](N)C(=O)O; dNMeF = CN[C@H](Cc1ccccc1)C(=O)O; aThr = C[C@H](O)[C@H](N)C(=O)O

Assays:
[1] = test system: Sal-resistant mutants of E. coli D21f2tolC (rpoC / rpoB substitutions); assay: Broth microdilution resistance / cross-resistance levels of spontaneous Sal-resistant mutants; assay type: cell-based, Escherichia coli
Protocol: Isolation of Sal-Resistant Mutants: Spontaneous Sal-Resistant Mutants. E. coli D21f2tolC (6) was cultured to saturation in 5 ml LB broth (7) at 37° C., cultures were centrifuged, and cell pellets (˜3×10^9 cells) were re-suspended in 50 μl LB broth and plated on LB agar (7) containing 1.2 μg/ml Sal (a concentration four times the minimal concentration required to prevent growth of wild-type cells under these conditions), and incubated 24-48 h at 37° C. Sal-resistant mutants were identified by the ability to form colonies on this medium and were confirmed by re-streaking on the same medium.
Quantitation of Resistance to Sal. Resistance to Sal was quantified by performing broth microdilution assays. Single colonies were inoculated into 3 ml LB broth, and incubated 3-6 h at 37° C. with shaking. Diluted aliquots (2×10^4 cells in 98 μl LB broth; concentrations determined using OD600=1 for 10^9 cells) were dispensed into wells of a 96-well plate, were supplemented with 2 μl of a 2-fold dilution series of Sal in methanol (final concentrations of […], 0.390, 0.195, 0.0975, 0.0488, 0.0244, 0.0122, and 0.00609 μg/ml) or 2 μl of a solvent blank, and were incubated 16 h at 37° C. with shaking. The minimum inhibitory concentration (MIC) was defined as the lowest tested concentration of Sal that inhibited bacterial growth by 95%.
Quantitation of Cross-Resistance to Rifampin and CBR703. Cross-resistance levels were determined analogously to resistance levels, using 0.12-0.78 μg/ml of rifampin (Sigma, Inc.) and 0.39-25 μg/ml of CBR703 (Maybridge, Inc.).

[2] = molecular target: bacterial RNA polymerase (RNAP) (Escherichia coli, UniProt P0A8T7+P0A8V2); details: in vitro; reference 4; read-out: IC50, inhibition of bacterial RNA polymerase in vitro; cited from earlier work
human RNAPs = details: human RNAP I, RNAP II, RNAP III; reference 4; cited from earlier work
Streptococcus pneumoniae = details: references 1, 2; cited from earlier work
S. pyogenes = details: references 1, 2; cited from earlier work

Sequence of bacterial RNA polymerase (RNAP) (P0A8V2 whole entry): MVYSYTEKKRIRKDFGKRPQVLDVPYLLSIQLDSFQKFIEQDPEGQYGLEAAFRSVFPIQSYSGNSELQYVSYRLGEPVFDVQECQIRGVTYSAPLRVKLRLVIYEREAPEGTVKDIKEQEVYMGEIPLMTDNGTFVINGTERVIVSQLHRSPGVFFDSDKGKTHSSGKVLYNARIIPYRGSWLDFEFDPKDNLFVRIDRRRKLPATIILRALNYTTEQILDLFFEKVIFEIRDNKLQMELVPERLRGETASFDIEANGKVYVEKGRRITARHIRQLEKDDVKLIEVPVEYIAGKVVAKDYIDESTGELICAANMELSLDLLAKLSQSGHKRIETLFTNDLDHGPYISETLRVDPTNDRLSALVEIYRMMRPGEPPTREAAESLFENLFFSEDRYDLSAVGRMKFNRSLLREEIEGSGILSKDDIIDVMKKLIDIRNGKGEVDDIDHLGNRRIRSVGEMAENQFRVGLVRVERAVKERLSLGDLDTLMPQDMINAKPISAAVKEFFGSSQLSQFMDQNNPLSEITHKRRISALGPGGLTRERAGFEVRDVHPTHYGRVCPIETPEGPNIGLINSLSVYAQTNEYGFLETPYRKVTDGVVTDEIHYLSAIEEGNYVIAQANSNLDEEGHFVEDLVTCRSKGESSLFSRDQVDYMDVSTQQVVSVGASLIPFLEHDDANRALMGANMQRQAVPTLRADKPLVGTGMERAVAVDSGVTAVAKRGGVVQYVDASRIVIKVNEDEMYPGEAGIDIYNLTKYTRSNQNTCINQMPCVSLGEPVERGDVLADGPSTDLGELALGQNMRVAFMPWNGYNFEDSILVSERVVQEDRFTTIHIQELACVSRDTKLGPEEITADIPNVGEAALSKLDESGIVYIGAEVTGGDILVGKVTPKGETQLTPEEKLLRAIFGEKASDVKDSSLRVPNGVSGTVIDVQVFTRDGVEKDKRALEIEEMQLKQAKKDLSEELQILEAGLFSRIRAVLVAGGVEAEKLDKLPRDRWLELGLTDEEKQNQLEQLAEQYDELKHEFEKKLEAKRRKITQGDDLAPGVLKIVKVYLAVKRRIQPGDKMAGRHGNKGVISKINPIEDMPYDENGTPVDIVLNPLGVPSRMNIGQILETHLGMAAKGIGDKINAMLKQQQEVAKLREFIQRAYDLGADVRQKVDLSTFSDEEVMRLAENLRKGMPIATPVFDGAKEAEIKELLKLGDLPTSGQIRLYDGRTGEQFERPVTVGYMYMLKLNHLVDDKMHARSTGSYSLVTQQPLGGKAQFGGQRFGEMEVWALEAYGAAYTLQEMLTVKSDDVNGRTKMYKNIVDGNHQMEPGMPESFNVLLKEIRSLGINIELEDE
Sequence of bacterial RNA polymerase (RNAP) (P0A8T7 whole entry): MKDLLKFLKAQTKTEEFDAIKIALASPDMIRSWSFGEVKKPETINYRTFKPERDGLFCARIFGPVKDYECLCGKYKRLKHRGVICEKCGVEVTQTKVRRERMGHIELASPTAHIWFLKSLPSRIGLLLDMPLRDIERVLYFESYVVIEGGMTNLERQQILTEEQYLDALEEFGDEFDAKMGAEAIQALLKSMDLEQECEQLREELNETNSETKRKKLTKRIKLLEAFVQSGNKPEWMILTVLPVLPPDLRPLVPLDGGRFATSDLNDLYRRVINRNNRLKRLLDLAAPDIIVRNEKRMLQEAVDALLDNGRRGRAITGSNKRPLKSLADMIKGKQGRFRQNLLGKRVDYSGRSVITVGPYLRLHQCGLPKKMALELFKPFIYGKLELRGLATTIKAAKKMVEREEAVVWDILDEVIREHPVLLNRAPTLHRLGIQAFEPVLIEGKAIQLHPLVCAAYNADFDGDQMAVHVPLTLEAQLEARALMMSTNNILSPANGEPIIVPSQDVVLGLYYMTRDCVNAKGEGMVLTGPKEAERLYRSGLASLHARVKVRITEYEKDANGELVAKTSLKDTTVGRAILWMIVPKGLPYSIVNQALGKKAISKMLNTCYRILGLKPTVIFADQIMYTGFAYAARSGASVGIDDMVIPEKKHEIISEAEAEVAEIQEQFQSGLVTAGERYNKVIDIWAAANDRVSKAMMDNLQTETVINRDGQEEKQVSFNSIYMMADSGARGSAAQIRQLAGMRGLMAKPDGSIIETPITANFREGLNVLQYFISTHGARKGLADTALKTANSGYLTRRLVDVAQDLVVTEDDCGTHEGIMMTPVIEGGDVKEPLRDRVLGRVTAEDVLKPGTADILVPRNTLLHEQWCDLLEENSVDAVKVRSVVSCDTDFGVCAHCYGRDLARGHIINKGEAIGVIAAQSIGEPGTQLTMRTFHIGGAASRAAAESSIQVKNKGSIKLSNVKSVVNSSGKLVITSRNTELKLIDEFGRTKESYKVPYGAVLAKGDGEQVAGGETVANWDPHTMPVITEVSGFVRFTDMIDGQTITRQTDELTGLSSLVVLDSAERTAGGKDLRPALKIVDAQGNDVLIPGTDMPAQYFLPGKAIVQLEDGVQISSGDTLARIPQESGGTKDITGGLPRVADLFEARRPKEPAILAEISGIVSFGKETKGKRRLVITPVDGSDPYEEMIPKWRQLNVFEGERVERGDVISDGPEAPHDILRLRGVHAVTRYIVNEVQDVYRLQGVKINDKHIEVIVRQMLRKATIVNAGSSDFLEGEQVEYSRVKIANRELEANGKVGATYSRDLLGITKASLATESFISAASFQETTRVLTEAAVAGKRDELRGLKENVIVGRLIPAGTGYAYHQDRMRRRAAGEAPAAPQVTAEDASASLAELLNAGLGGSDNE
Sequence of bacterial RNA polymerase (RNAP) (P0A7Z4 whole entry, further chain): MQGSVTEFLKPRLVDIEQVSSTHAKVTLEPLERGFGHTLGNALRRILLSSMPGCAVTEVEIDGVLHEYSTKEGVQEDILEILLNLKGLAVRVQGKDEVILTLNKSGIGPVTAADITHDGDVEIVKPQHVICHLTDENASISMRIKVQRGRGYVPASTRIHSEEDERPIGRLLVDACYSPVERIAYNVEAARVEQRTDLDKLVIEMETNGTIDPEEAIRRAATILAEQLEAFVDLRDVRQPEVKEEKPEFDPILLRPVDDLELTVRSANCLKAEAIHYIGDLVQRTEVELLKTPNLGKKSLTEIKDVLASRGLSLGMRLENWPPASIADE

SMILES: CC[C@@H](C)[C@@H]1NC(=O)[C@H](NC(=O)[C@@H](C)[C@@H](O)C(C)C)[C@H](C)OC(=O)[C@H]2COC(=O)CNC(=O)/C=C/[C@@]3(CO3)[C@H](C)Oc3ccc(cc3)[C@H](NC1=O)C(=O)N(C)[C@H](Cc1ccccc1)C(=O)N[C@@H]([C@H](C)O)C(=O)N2 [Sal, salinamide A] (X1-[dT][aIle][X2][dNMeF][aThr][dS]; ester 1-C; linker 3-6 via G)
- resistance to Sal, all analyzed mutants ([1]; all analyzed Sal-resistant mutants (Tables 2, 3)): at least 2 fold
- resistance level (MIC/MICwild-type) ([1]; rpoB (RNAP β subunit) 569 Ile→Ser): >16
- resistance level (MIC/MICwild-type) ([1]; rpoB (RNAP β subunit) 675 Asp→Ala): >16
- resistance level (MIC/MICwild-type) ([1]; rpoB (RNAP β subunit) 677 Asn→His): >16
- resistance level (MIC/MICwild-type) ([1]; rpoB (RNAP β subunit) 677 Asn→Lys): >16
- resistance level (MIC/MICwild-type) ([1]; rpoC (RNAP β′ subunit) 690 Asn→Asp): 16
- resistance level (MIC/MICwild-type) ([1]; rpoC (RNAP β′ subunit) 697 Met→Val (one isolate also 1054 Thr→Ala)): >16
- resistance level (MIC/MICwild-type) ([1]; rpoC (RNAP β′ subunit) 738 Arg→Cys): >16
- resistance level (MIC/MICwild-type) ([1]; rpoC (RNAP β′ subunit) 738 Arg→His): >16
- resistance level (MIC/MICwild-type) ([1]; rpoC (RNAP β′ subunit) 738 Arg→Pro): >16
- resistance level (MIC/MICwild-type) ([1]; rpoC (RNAP β′ subunit) 738 Arg→Ser): >16
- resistance level (MIC/MICwild-type) ([1]; rpoC (RNAP β′ subunit) 748 Ala→Glu): 16
- resistance level (MIC/MICwild-type) ([1]; rpoC (RNAP β′ subunit) 758 Pro→Ser): 16
- resistance level (MIC/MICwild-type) ([1]; rpoC (RNAP β′ subunit) 763 Phe→Cys): 16
- resistance level (MIC/MICwild-type) ([1]; rpoC (RNAP β′ subunit) 775 Ser→Ala): 8
- resistance level (MIC/MICwild-type) ([1]; rpoC (RNAP β′ subunit) 779 Ala→Thr): >16
- resistance level (MIC/MICwild-type) ([1]; rpoC (RNAP β′ subunit) 779 Ala→Val): >16
- resistance level (MIC/MICwild-type) ([1]; rpoC (RNAP β′ subunit) 780 Arg→Cys): >16
- resistance level (MIC/MICwild-type) ([1]; rpoC (RNAP β′ subunit) 783 Leu→Arg): >16
- resistance to Sal, thirteen mutants ([1]; thirteen of the Sal-resistant mutants): > 16 fold
- pIC50 [2]: 6.30
- inhibition of human RNAPs (human RNAPs): does not inhibit
- antibacterial activity (Streptococcus pneumoniae): exhibits antibacterial activity
- antibacterial activity (S. pyogenes): exhibits antibacterial activity
